Reference: patent US10568923B2, “Plant parts and extracts having anticoccidial activity” (priority 2012, dated 2020)
“Also recorded” adds a separate entry of the source.

Tests used:
[1] = system: E. tenella (Houghton strain); assay: Example 1 screening trial: Q. infectoria in controlling caecal coccidiosis in broiler chickens; type: in vivo, Eimeria tenella; conditions: day 7 post infection; average of three replicates; Q. infectoria 100 g/ton feed, Coxistac 1000 g/ton
Procedure: The screening trial was conducted at a poultry farm facility located in Gummidipundi, India. Straight run commercial hybrid broiler chickens, Gallus domesticus (Var. Vencobb 400) were used for the study. Day old male chicks were procured, weighed individually, wing banded, and randomly segregated into groups. The experimental design is detailed in Table 1.
The treated birds were fed with plant extract incorporated in the feed from day 1 (Table 2). The crude powders of Q. infectoria gall nut were procured from Pooja herbs, Mumbai, India. […]
The excreta of the birds were monitored daily from the day 1 post infection to day 10 for their consistency, presence of blood, mucus, undigested feed, and orange color. […]
The mortality of the birds was recorded on a daily basis and post mortem was carried out to confirm the cause of death.
On day 5 and 7 post infection, 2 birds from each of the groups were sacrificed by cervical dislocation and the intestine was cut open. The caeca of the birds were scored for coccidiosis lesions. […]
Triplicate samples of the excreta of the birds were collected randomly from the tray kept below the cages and the oocyst per gram was evaluated.

[2] = system: E. maxima (isolate ID NKL/11/Ac1); assay: Example 14: in vivo anticoccidial trial in Cobb 400 broilers challenged with E. maxima; parameters: species or system Eimeria maxima; conditions: day 6 post challenge
From the text: The trial was designed with 11 treatment groups with 2 replicates per groups and 12 male birds per replicate. The groups included (1) uninfected control, (2) infected control, (3) positive control groups supplemented with Salinomycin (Coxistac) at the recommended dosage, (4) treatment group treated with 20 and 50 g/ton of pure THB, (5) encapsulated THB at 46.3, 92.6 and 185.2 g/ton of feed, and (6) microemulsion of THB at 138.9, 277.8 and 416.7 g/ton of feed. […] The parameters evaluated were lesion scoring on day 6 post challenge and oocysts shedding on day 7 post-challenge.
The trial was conducted at the R & D poultry farm facility of Kemin Animal Nutrition and Health (India), Gummidipundi. Straight run commercial hybrid broiler chickens, Gallus domesticus (Var. Vencobb 400) were used for the study. Day old male chicks were procured from Shanthi hatcheries, Coimbatore, India. Birds were weighed and examined for general health at receipt. The birds were individually identified by wing bands. The chicks were housed in mild steel cages which were cleaned, disinfected using Virkon S (Du Pont, India) and painted earlier. The birds were provided with ad libitum feed and water. No water sanitizers or antimicrobial compounds were used in the water or in the feed. The experimental design is detailed in Table 13. As this was a preliminary study to evaluate the effect of encapsulated and microemulsion of THB in controlling coccidiosis only 2 replicates were maintained.
The birds were fed with either feed containing no anticoccidial agent, THB, encapsulated THB, microemulsion of THB or Salinomycin (Coxistac, Pfizer, India) incorporated in the feed from day 1. THB was obtained from J P N Pharma, Mumbai, India
The oocysts of E. maxima (isolate ID NKL/11/Ac1) that were maintained at the Department of Veterinary Parasitology, Madras Veterinary College, Chennai were used for the induction of coccidiosis in the trial birds. The origin of the isolate was a broiler bird with clinical coccidiosis, and they were propagated in vivo to yield oocyst quantities sufficient for the study. […]

[3] = Example 15: compatibility with Tiamulin in commercial broilers (Ross 308), 42 days; type: in vivo, Gallus domesticus (Var. Ross 308); conditions: used in combination in feed of broilers
Procedure: Experimental facility and study design. An in vivo trial was conducted at Ramadootha poultry farm, Hyderabad, India. Straight run commercial hybrid broiler chickens, Gallus domesticus (Var. Ross 308) were used for the study. Day old male chicks were procured from Suguna Broilers, India. The birds were weighed individually, wing banded, and randomly segregated into groups. The experimental design is detailed in Table 18.
Details of treatment groups. The treated birds were fed with supplements incorporated in the feed from day 1 (Table 22).
Parameters analyzed. The parameters that were chosen for analyses were body weight, feed conversion ratio (FCR) on a weekly basis, mortality and leg weakness on daily basis.
Mean body weight. Birds from each of the groups were removed and weighed individually every week to calculate the weight gain. The cumulative average weight gain of the 8 replicates of each of the group was taken as the mean weight/week.
Feed Conversion ratio (FCR). The total feed consumption was monitored regularly and FCR was arrived at by dividing the feed consumed per bird by the final weight per bird.
Mortality. Mortality was recorded on daily basis and the total mortality was calculated and expressed as %. […]
Leg weakness. All birds were examined every day for the major clinical signs, leg weakness which was scored on a 0 to 4 scale. […]

[4] = system: mixed culture of oocysts of the species E. tenella, E. acervulina and E. maxima; assay: In vivo challenge trial in broiler birds with mixed infection of coccidiosis (Examples 3, 10, 13); conditions: Example 10, 11, 22 and 55 ppm
[5] = system: sporozoites of Eimeria tenella; assay: In vitro anti-sporozoite activity by MTT reduction assay; type: cell-based; conditions: peaks separated by semi-preparative HPLC; compared to crude powder in equivalent concentrations
Procedure: Further, an in vitro method based on 3-(4,5-Dimethyl-2-thiazolyl)-2,5-diphenyl-2H-tetrazolium bromide (MTT) reduction assay was developed to evaluate the anti-sporozoite activity of plant extracts as a measure of the viability of the sporozoites. The optimized method included the preparation, sterilization and purification of sporozoites, followed by incubation of sporozoite suspension (minimum of 10^5 cells/ml) with required concentration of plant extract. The plant samples were prepared by mixing crude powder into a known volume of distilled water to achieve the specific ppm, vortexed for 2 min and filtered through a 0.2μ syringe filter. Following 24 h of incubation with the plant extracts, the sporozoites were thoroughly washed and then MTT assay was performed. MTT-PMS solution (0.2 millimolar each) is incubated with the sporozoite suspension (at 1:10 ratio) for 2 h at 41° C. […] The purple dye formazan is dissolved in 200 ul DMSO and the absorbance is measured at 530 nm against a reference wavelength of 630 nm.
Q. infectoria gall nut crude powder was fractionated using different solvent by column chromatography. The sample from each of the fractions was evaluated for their anti-sporozoite activity.
These four compounds were separated by semi-preparative HPLC and anti-sporozoite activity was evaluated in comparison to the crude powder in equivalent concentrations.

Structure (SMILES)	Average Oocysts Per Gram Excreta [1]	Lesion score (mid-gut) ([2]; Coxistac at 500 g/ton of feed, vs infected control)	Compatibility with Tiamulin [3]	Dose response (lesion score, OPG) [4]	Lesion score for E. tenella, E. maxima and E. acervulina ([4]; day 5 post infection, vs infected control and Salinomycin)	Lesion score (mid-gut) ([2]; pure THB at 25 and 50 ppm)	Lesion score (mid-gut) ([2]; pure THB at 25 and 50 ppm, listed as THB)	Anti-sporozoite activity of the four major HPLC peaks (MTT) [5]
CC[C@@H](C(=O)[C@@H](C)[C@@H](O)[C@H](C)[C@@H]1O[C@@H]([C@@H](CC)C(=O)O)CC[C@@H]1C)[C@H]1O[C@]2(C=C[C@@H](O)[C@]3(CC[C@@](C)([C@H]4CC[C@](O)(CC)[C@H](C)O4)O3)O2)[C@H](C)C[C@@H]1C [Salinomycin, reference compound]	did not show any indication of reduction of oocysts	no significant reduction; also recorded: showed a reduction in lesion scores	indicates interaction					
O=C(O)c1cc(O)c(O)c(O)c1 (single isomer, unassigned) [gallic acid, 3,4,5-trihydroxybenzoic acid]				Dose dependent response was observed with no significant difference between gallic acid at 22 and 55 ppm	significant reduction in the score for all the three tested species	comparable efficacy	significant improvement in lesions scores when compared to the positive control	best anti-sporozoite activity
